The target of one assay is IDH2-R140Q (Homo sapiens (Human), UniProt P48735, R140Q). Description: Biochemical assay for IDH2 R140Q mutant enzyme (conversion of αKG to 2HG, RapidFire MS). The conditions noted are these: IDH2/R140Q IC50, 1.2 nM enzyme, 90 minutes, pH 7.0.
A further assay has as its target Wild-type IDH2 (Homo sapiens (Human), UniProt P48735). Description: Biochemical assay for wild-type IDH2 enzyme (isocitrate to αKG, LC-MS). Particulars: pH 7.5. Here is the method: (§1) IDH1 and IDH2 enzymes catalyze the conversion of isocitrate to αKG. […] Following derivatization at room temperature for one hour, samples are extracted with 600 μL of EtOAc.
For the next assay, the target named is Wild-type IDH1 (Homo sapiens (Human), UniProt O75874). Description: Biochemical assay for wild-type IDH1 enzyme (isocitrate to αKG, LC-MS). The conditions noted are these: pH 7.5. Here is the method:
as §1

The target in a further assay is IDH2-R172K (Homo sapiens (Human), UniProt P48735, R172K). The assay can be described thus: Biochemical assay for IDH2 R172K mutant enzyme (conversion of αKG to 2HG, RapidFire MS). Particulars: IDH2/R172K IC50, 1.2 nM enzyme, 90 minutes, pH 7.0.
Chain of IDH2-R172K (P48735 40-452 R172K): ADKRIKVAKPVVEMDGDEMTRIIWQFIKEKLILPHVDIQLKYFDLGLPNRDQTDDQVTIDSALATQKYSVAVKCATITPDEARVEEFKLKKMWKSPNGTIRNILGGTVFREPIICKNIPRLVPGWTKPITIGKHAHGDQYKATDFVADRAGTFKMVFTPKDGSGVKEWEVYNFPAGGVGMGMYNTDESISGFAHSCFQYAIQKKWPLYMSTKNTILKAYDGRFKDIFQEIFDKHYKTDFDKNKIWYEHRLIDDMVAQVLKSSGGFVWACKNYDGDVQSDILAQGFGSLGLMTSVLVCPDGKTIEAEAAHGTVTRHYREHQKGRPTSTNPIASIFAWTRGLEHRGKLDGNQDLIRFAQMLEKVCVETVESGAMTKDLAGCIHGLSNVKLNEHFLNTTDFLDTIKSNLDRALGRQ

Chain of IDH2-R140Q (P48735 40-452 R140Q): as the sequence (P48735 40-452 R172K) above, with R101Q, K133R counted along it
Chain of Wild-type IDH2 (P48735 40-452): as the sequence (P48735 40-452 R172K) above, with K133R counted along it
Chain of Wild-type IDH1 (O75874 whole entry): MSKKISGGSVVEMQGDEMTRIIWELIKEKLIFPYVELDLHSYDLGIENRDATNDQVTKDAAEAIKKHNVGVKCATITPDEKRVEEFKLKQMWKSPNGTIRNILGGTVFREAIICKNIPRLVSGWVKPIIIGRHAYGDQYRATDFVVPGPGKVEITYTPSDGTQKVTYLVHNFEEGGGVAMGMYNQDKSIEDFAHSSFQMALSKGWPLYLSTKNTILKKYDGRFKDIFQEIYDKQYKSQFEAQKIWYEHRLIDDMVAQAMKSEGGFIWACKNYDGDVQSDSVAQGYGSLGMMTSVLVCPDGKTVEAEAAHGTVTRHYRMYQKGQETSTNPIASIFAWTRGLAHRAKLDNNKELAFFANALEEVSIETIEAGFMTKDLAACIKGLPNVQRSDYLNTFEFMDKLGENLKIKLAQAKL

`C=CC(=O)N1CCN(C(CCOC)c2ccc([C@H](C)Nc3ncc4c(n3)N(CC)C(=O)OC4)cc2)CC1` (single isomer, unassigned) [Example 14]: the IC50 – broadly, the concentration that inhibits the measured activity by half – on IDH2-R140Q was 746 nM; against Wild-type IDH2, 7400 nM; against Wild-type IDH1, 392 nM; at IDH2-R172K, 162 nM.
As for `C=CC(=O)N1CCN(C(CC)c2ccc([C@H](C)Nc3ncc4c(n3)N(CC)C(=O)OC4)cc2)CC1` (single isomer, unassigned) [Example 12], the half-maximal inhibitory concentration (IC50) on IDH2-R140Q turned out to be 134 nM; on Wild-type IDH2 it was 3220 nM; against Wild-type IDH1 it was 277 nM; at IDH2-R172K, 26.3 nM.
On the same counts, the results for `C=CC(=O)N1CCN(C(CC)c2ccc([C@H](C)Nc3ncc4c(n3)N(CC)C(=O)OC4)cc2)CC1` (single isomer, unassigned) [Example 11] are 54.3 nM, 2080 nM, 345 nM and 20 nM.
The matching figures for `C=CC(=O)N1CCN(C(CC(C)C)c2ccc([C@H](C)Nc3ncc4c(n3)N(CC)C(=O)OC4)cc2)CC1` (single isomer, unassigned) [Example 8]: 46 nM, 1620 nM, 237 nM and 17 nM.
The matching figures for `C=CC(=O)N1CCN(C(CC2CC2)c2ccc([C@H](C)Nc3ncc4c(n3)N(C)C(=O)OC4)cc2)CC1` (single isomer, unassigned) [Example 3]: 64.8 nM, 3370 nM, 425 nM and 15.6 nM.
With `C=CC(=O)N1CCN(C(CC(C)C)c2ccc([C@H](C)Nc3ncc4c(n3)N(CC)C(=O)OC4)cc2)CC1` (single isomer, unassigned) [Example 7], the IC50 at IDH2-R140Q was found to be 74.3 nM; against Wild-type IDH2, 1530 nM; at Wild-type IDH1, 233 nM; at IDH2-R172K, 22.4 nM.
The matching figures for `C=CC(=O)N1CCN([C@@H](CC2CC2)c2ccc([C@H](C)Nc3ncc4c(n3)N(CC)C(=O)OC4)cc2)CC1` [Example 2, 7-[[(1S)-1-[4-[(1S)-2-cyclopropyl-1-(4-prop-2-enoylpiperazin-1-yl)ethyl]phenyl]ethyl]amino]-1-ethyl-4H-pyrimido[4,5-d][1,3]oxazin-2-one]: 36.9 nM, 884 ± 748 nM, 105 ± 113 nM and 11.5 nM.
Consider `C=CC(=O)N1CCN(C(CC(C)C)c2ccc([C@H](C)Nc3ncc4c(n3)N(CC)C(=O)OC4)cc2)CC1` (stereo partly drawn) [Example 6, 1-Ethyl-7-[[(1S)-1-[4-[3-methyl-1-(4-prop-2-enoylpiperazin-1-yl)butyl]phenyl]ethyl]amino]-4H-pyrimido[4,5-d][1,3]oxazin-2-one], for which the half-maximal inhibitory concentration (IC50) on Wild-type IDH2 worked out at 493 nM; on Wild-type IDH1, 54.9 nM.
As for `C=CC(=O)N1CCN(C(CCOC)c2ccc([C@H](C)Nc3ncc4c(n3)N(CC)C(=O)OC4)cc2)CC1` (single isomer, unassigned) [Example 13], the IC50 on IDH2-R140Q amounted to 239 nM; at Wild-type IDH2 it was 7030 nM; against Wild-type IDH1 it was 456 nM; on IDH2-R172K it was 39 nM.
The matching figures for `C=CC(=O)N1CCN(C(CC2CC2)c2ccc([C@H](C)Nc3ncc4c(n3)N(C)C(=O)OC4)cc2)CC1` (single isomer, unassigned) [Example 4]: 81.1 nM, 3700 nM, 302 nM and 28 nM.
As for `C=CC(=O)N1CCN([C@H](CC2CC2)c2ccc([C@H](C)Nc3ncc4c(n3)N(CC)C(=O)OC4)cc2)CC1` [Example 1, 7-[[(1S)-1-[4-[(1R)-2-Cyclopropyl-1-(4-prop-2-enoylpiperazin-1-yl)ethyl]phenyl]ethyl]amino]-1-ethyl-4H-pyrimido[4,5-d][1,3]oxazin-2-one], the IC50 is 113 nM against IDH2-R140Q, 801 ± 745 nM against Wild-type IDH2, 85.4 ± 107 nM against Wild-type IDH1 and 32.8 nM at IDH2-R172K.

The values above are taken from patent US11001596B2, “7-phenylethylamino-4H-pyrimido[4,5-d][1,3]oxazin-2-one compounds as mutant IDH1 and IDH2 inhibitors” (Eli Lilly and Company, priority 2016, dated 2021).
